The values below come from patent publication US12534452B2, “N-(1H-imidazol-2-yl)benzamide compound and pharmaceutical composition comprising the same as active ingredient” (KAINOS MEDICINE, INC., priority 2019, dated 2026).

SMILES strings stand for the structures. A value given as a limit tells only on which side of the number the result lay.

Chain of IRAK4 (Q9NWZ3 whole entry): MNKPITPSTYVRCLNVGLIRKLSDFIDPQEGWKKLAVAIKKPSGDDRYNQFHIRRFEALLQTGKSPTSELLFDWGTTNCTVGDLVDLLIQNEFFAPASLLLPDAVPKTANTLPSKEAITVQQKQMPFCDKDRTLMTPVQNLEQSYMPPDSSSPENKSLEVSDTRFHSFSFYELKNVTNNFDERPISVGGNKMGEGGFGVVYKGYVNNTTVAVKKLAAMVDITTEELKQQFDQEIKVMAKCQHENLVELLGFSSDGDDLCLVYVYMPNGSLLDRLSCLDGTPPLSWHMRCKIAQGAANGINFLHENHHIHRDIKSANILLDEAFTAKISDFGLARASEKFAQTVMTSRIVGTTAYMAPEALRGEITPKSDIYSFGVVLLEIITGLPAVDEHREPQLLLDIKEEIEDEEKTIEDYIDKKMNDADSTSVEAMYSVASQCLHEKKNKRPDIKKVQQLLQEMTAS

The target in this test is IRAK4 (Homo sapiens (Human), UniProt Q9NWZ3). Description: In vitro IRAK4 phosphorylation activity assay. The test is classed as biochemical. As to conditions: [γ-33P]-ATP, myelin basic protein substrate, 40 minutes at room temperature; categories. Summed up:
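Radiometric filter-binding assay, no compound–kinase preincubation; 8 mM MOPS pH 7.0, 0.2 mM EDTA, 10 mM Mg acetate, 0.33 mg/mL myelin basic protein substrate, [γ-33P]-ATP. Reaction 40 min at room temperature, stopped with phosphoric acid, scintillation counting; IC50 reported in categories.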
By IC50 is commonly meant the concentration at which inhibition is half-maximal. Read a high IC50 as weaker potency in that assay. As for `CN1CCN(C(=O)CCCCCc2cn(-c3ccccc3)c(NC(=O)c3cccc(-c4ccc5ncsc5c4)c3)n2)CC1` [Example 285, 3-(benzo[d]thiazol-6-yl)-N-(4-(6-(4-methylpiperazin-1-yl)-6-oxohexyl)-1-phenyl-1H-imidazol-2-yl)benzamide], the IC50 was under 50 nM. The same measure for `O=C(Nc1nc(CCC(=O)N2CC[C@@H](C(=O)O)C2)cn1-c1ccccc1)c1cccc(-c2cn[nH]c2)c1` [Example 25, (R)-1-(3-(2-(3-(1H-pyrazol-4-yl)benzamido)-1-phenyl-1H-imidazol-4-yl)propanoyl)pyrrolidine-3-carboxylic acid]: 50 to 100 nM; for `C[C@H]1CCCCN1C(=O)CCc1cn(-c2ccccc2)c(NC(=O)c2cccc(-c3cn[nH]c3)c2)n1` [Example 31, (S)—N-(4-(3-(2-methylpiperidin-1-yl)-3-oxopropyl)-1-phenyl-1H-imidazol-2-yl)-3-(1H-pyrazol-4-yl)benzamide]: 50 to 100 nM. `O=C(Nc1nc(CCCCCNc2ccccc2)cn1-c1ccccc1)c1cccc(-c2cn[nH]c2)c1` [Example 117, N-(1-phenyl-4-(5-(phenylamino)pentyl)-1H-imidazol-2-yl)-3-(1H-pyrazol-4-yl)benzamide] showed an IC50 of under 50 nM. The same measure for `O=C(Nc1nc(CCCNc2ccccc2)cn1-c1ccccc1)c1cccc(-c2cn[nH]c2)c1` [Example 109, N-(1-phenyl-4-(3-(phenylamino)propyl)-1H-imidazol-2-yl)-3-(1H-pyrazol-4-yl)benzamide]: under 50 nM; for `C[C@@H]1CCCCN1C(=O)CCCc1cn(-c2ccccc2)c(NC(=O)c2cccc(-c3cn[nH]c3)c2)n1` [Example 61, (R)—N-(4-(4-(2-methylpiperidin-1-yl)-4-oxobutyl)-1-phenyl-1H-imidazol-2-yl)-3-(1H-pyrazol-4-yl)benzamide]: under 50 nM; for `O=C(CCCc1cn(-c2ccccc2)c(NC(=O)c2cccc(-c3cn[nH]c3)c2)n1)Nc1ccccc1F` [Example 65, N-(4-(4-((2-fluorophenyl)amino)-4-oxobutyl)-1-phenyl-1H-imidazol-2-yl)-3-(1H-pyrazol-4-yl)benzamide]: under 50 nM.

As for `O=C(Nc1nc(CCCCCCN2CCSCC2)cn1-c1ccccc1)c1cccc(-c2cn[nH]c2)c1` [Example 124, N-(1-phenyl-4-(6-thiomorpholinohexyl)-1H-imidazol-2-yl)-3-(1H-pyrazol-4-yl)benzamide], the IC50 is under 50 nM. For `Cn1cc(-c2cccc(C(=O)Nc3nc(CCCC(=O)N4CCCC[C@@H]4C(F)(F)F)cn3-c3ccccc3)c2)cn1` [Example 176, (R)-3-(1-methyl-1H-pyrazol-4-yl)-N-(4-(4-oxo-4-(2-(trifluoromethyl)piperidin-1-yl)butyl)-1-phenyl-1H-imidazol-2-yl)benzamide], the IC50 is under 50 nM. For `CC1CCCCN1C(=O)CCCc1cn(-c2ccccc2)c(NC(=O)c2cccc(-c3cnn(C)c3)c2)n1` (stereo not shown) [Example 166, 3-(1-methyl-1H-pyrazol-4-yl)-N-(4-(4-(2-methylpiperidin-1-yl)-4-oxobutyl)-1-phenyl-1H-imidazol-2-yl)benzamide], the IC50 is under 50 nM. To `CNC(=O)Cc1cn(-c2ccccc2)c(NC(=O)c2ccc(-c3cn[nH]c3)cc2)n1` [Example 48, N-(4-(2-(methylamino)-2-oxoethyl)-1-phenyl-1H-imidazol-2-yl)-4-(1H-pyrazol-4-yl)benzamide] belongs over 100 nM; to `Cn1ncc2cc(-c3cccc(C(=O)Nc4nc(CCCCCC(=O)N5CCCCC5)cn4-c4ccccc4)c3)ccc21` [Example 251, 3-(1-methyl-1H-indazol-5-yl)-N-(4-(6-oxo-6-(piperidin-1-yl)hexyl)-1-phenyl-1H-imidazol-2-yl)benzamide], over 100 nM. The same measure for `CN1CCN(CCCCc2cn(-c3ccccc3)c(NC(=O)c3cccc(-c4cnn(C)c4)c3)n2)CC1` [Example 221, 3-(1-methyl-1H-pyrazol-4-yl)-N-(4-(4-(4-methylpiperazin-1-yl)butyl)-1-phenyl-1H-imidazol-2-yl)benzamide]: under 50 nM.
